ChEMBL document CHEMBL1149004, “Ficulinic acid A and B, two novel cytotoxic straight-chain acids from the sponge Ficulina ficus” (1986)
Values after ≈ are worked out from the molar mass of the structure shown. Active and inactive are the calls of the source. No cut-off for these calls is given here.

Key:
L1210 = assay: Cytotoxicity against mouse L1210 cells assessed as inhibition of DNA synthesis by [3H]thymidine incorporation assay; assay type: functional; conditions: read-out: ID50 (the source's name)
Walker 256 = assay: Growth inhibition of rat Walker 256 cells; assay type: functional, cell-based

Compound	IC50 (L1210) [µg/mL]	Activity (Walker 256)
CCCCCCC/C=C/C(=O)CCCCCCCCCC(CCCCCCC)C(=O)O (stereo not drawn) [FICULINIC ACID B]	12 (≈ 27.5 µM)	–
CCCCC/C=C\CCC(=O)CCCCCCO	–	Active
CCCCCCC/C=C/C(=O)CCCCCCCC(CCCCCCC)C(=O)O (stereo not drawn) [FICULINIC ACID A]	10 (≈ 24.5 µM)	–
